Laboratory results published in patent publication US20230295115A1, “SUBSTITUTED ISOQUINOLINYLMETHYL AMIDES, ANALOGUES THEREOF, AND METHODS USING SAME” (priority 2020, published 2023).

These compounds were tested on HBV rcDNA (assay: HepDE19 assay with bDNA quantitation of HBV rcDNA). Conditions: HepDE19 cells, 7 day incubation, rcDNA measured by Quantigene 2.0 bDNA assay, top concentration 25 μM; read-out: DE-19bDNA EC50.
Type: cell-based, hepatitis B virus (HBV)
Experimental: HepDE19 assay with bDNA quantitation of HBV rcDNA:
HepDE19 (50,000 cells/well) were plated in 96-well collagen-coated tissue-culture treated microtiter plates in DMEM/F12 medium supplemented with 10% fetal bovine serum, 1% penicillin-streptomycin and 1 μg/mL tetracycline and incubated in a humidified incubator at 37° C. and 5% CO2 overnight. Next day, the cells were switched to fresh medium without tetracycline and incubated for 4 hours at 37° C. and 5% CO2. […] The final DMSO concentration in the assay was 0.5%. The plates were incubated for 7 days in a humidified incubator at 37° C. and 5% CO2. Following a 7 day-incubation, the level of rcDNA present in the inhibitor-treated wells was measured using a Quantigene 2.0 bDNA assay kit (Affymetrix, Santa Clara, CA) with HBV specific custom probe set and manufacturers instructions. Concurrently, the effect of compounds on cell viability was assessed using replicate plates, plated at a density of 5,000 cells/well and incubated for 4 days, to determine the ATP content as a measure of cell viability using the cell-titer glo reagent (CTG; Promega Corporation, Madison, WI) as per manufacturer's instructions.

Row | SMILES | EC50 [nM]
1 | CC(c1c[nH]c(=O)c2cc(F)c(F)cc12)N(C)C(=O)c1cc2cc(F)c(F)cc2[nH]1 (single isomer, unassigned) [Compound 16, N-(1-(6,7-Difluoro-1-oxo-1,2-dihydroisoquinolin-4-yl)ethyl)-5,6-difluoro-N-methyl-1H-indole-2-carboxamide] | 10
2 | CC(c1c[nH]c(=O)c2cc(F)c(F)cc12)N(C)C(=O)c1cc2c(F)cc(F)cc2[nH]1 (single isomer, unassigned) [Compound 17, N-(1-(6,7-Difluoro-1-oxo-1,2-dihydroisoquinolin-4-yl)ethyl)-4,6-difluoro-N-methyl-1H-indole-2-carboxamide] | 2500
3 | CC(c1c[nH]c(=O)c2cc(F)c(F)cc12)N(C)C(=O)c1cc2c(F)cc(F)cc2[nH]1 (single isomer, unassigned) [Compound 18, N-(1-(6,7-Difluoro-1-oxo-1,2-dihydroisoquinolin-4-yl)ethyl)-4,6-difluoro-N-methyl-1H-indole-2-carboxamide] | 20
4 | CC(c1c[nH]c(=O)c2cc(F)c(F)cc12)N(C)C(=O)[C@@H]1Cc2ccccc2CN1 (single isomer, unassigned) [Compound 19] | 820
5 | CC(c1c[nH]c(=O)c2cc(F)c(F)cc12)N(C)C(=O)[C@@H]1Cc2ccccc2CN1 (single isomer, unassigned) [Compound 20] | 9200
6 | CC(c1c[nH]c(=O)c2cc(F)c(F)cc12)N(C)C(=O)[C@H]1Cc2ccccc2N1 (single isomer, unassigned) [Compound 21] | 300
7 | CC(c1c[nH]c(=O)c2cc(F)c(F)cc12)N(C)C(=O)[C@H]1Cc2ccccc2N1 (single isomer, unassigned) [Compound 22] | 3700
8 | CC(c1c[nH]c(=O)c2cc(F)c(F)cc12)N(C)C(=O)c1nc2ccccc2[nH]1 (single isomer, unassigned) [Compound 23, N-(1-(6,7-Difluoro-1-oxo-1,2-dihydroisoquinolin-4-yl)ethyl)-N-methyl-1H-benzo[d]imidazole-2-carboxamide] | ≥ 25000
9 | CC(c1c[nH]c(=O)c2cc(F)c(F)cc12)N(C)C(=O)c1nc2ccccc2[nH]1 (single isomer, unassigned) [Compound 24, N-(1-(6,7-Difluoro-1-oxo-1,2-dihydroisoquinolin-4-yl)ethyl)-N-methyl-1H-benzo[d]imidazole-2-carboxamide] | 760
10 | CC(c1c[nH]c(=O)c2cc(F)c(F)cc12)N(C)C(=O)c1cc2ccccc2o1 (single isomer, unassigned) [Compound 25, N-(1-(6,7-Difluoro-1-oxo-1,2-dihydroisoquinolin-4-yl)ethyl)-N-methylbenzofuran-2-carboxamide] | 17000
11 | CC(c1c[nH]c(=O)c2cc(F)c(F)cc12)N(C)C(=O)c1cc2ccccc2o1 (single isomer, unassigned) [Compound 26, N-(1-(6,7-Difluoro-1-oxo-1,2-dihydroisoquinolin-4-yl)ethyl)-N-methylbenzofuran-2-carboxamide] | 350
12 | CC(c1c[nH]c(=O)c2cc(F)c(F)cc12)N(CCCO)C(=O)c1cc2ccccc2[nH]1 (single isomer, unassigned) [Compound 27, N-(1-(6,7-Difluoro-1-oxo-1,2-dihydroisoquinolin-4-yl)ethyl)-N-(3-hydroxypropyl)-1H-indole-2-carboxamide] | 2900
13 | CC(c1c[nH]c(=O)c2cc(F)c(F)cc12)N(CCCO)C(=O)c1cc2ccccc2[nH]1 (single isomer, unassigned) [Compound 28, N-(1-(6,7-Difluoro-1-oxo-1,2-dihydroisoquinolin-4-yl)ethyl)-N-(3-hydroxypropyl)-1H-indole-2-carboxamide] | 40
14 | CC(c1c[nH]c(=O)c2cc(F)c(F)cc12)N(C)C(=O)[C@@H]1Cc2ccccc2N1 (single isomer, unassigned) [Compound 30] | 20
15 | CC(c1c[nH]c(=O)c2cc(F)c(F)cc12)N(C)C(=O)[C@@H]1Cc2ccccc2N1 (single isomer, unassigned) [Compound 31] | 20000
16 | CC(c1c[nH]c(=O)c2cc(F)c(F)cc12)N(C)C(=O)[C@H]1Cc2ccccc2CN1 (single isomer, unassigned) [Compound 32] | ≥ 25000
17 | CC(c1c[nH]c(=O)c2cc(F)c(F)cc12)N(C)C(=O)[C@H]1Cc2ccccc2CN1 (single isomer, unassigned) [Compound 33] | 6600
18 | CC(c1c[nH]c(=O)c2cc(F)c(F)cc12)N(C)C(=O)c1cc2ccccc2n1C (single isomer, unassigned) [Compound 43, N-(1-(6,7-Difluoro-1-oxo-1,2-dihydroisoquinolin-4-yl)ethyl)-N,1-dimethyl-1H-indole-2-carboxamide] | 4300
19 | CC(c1c[nH]c(=O)c2cc(F)c(F)cc12)N(C)C(=O)c1cc2ccccc2n1C (single isomer, unassigned) [Compound 44, N-(1-(6,7-Difluoro-1-oxo-1,2-dihydroisoquinolin-4-yl)ethyl)-N,1-dimethyl-1H-indole-2-carboxamide] | 300
20 | CC(c1c[nH]c(=O)c2cc(F)c(F)cc12)N(C)C(=O)c1cn2ccccc2n1 (single isomer, unassigned) [Compound 45, N-(1-(6,7-Difluoro-1-oxo-1,2-dihydroisoquinolin-4-yl)ethyl)-N-methylimidazo[1,2-a]pyridine-2-carboxamide] | 2500
21 | CC(c1c[nH]c(=O)c2cc(F)c(F)cc12)N(C)C(=O)c1cn2ccccc2n1 (single isomer, unassigned) [Compound 46, N-(1-(6,7-Difluoro-1-oxo-1,2-dihydroisoquinolin-4-yl)ethyl)-N-methylimidazo[1,2-a]pyridine-2-carboxamide] | 21000
22 | CC(c1c[nH]c(=O)c2cc(F)c(F)cc12)N(C)C(=O)c1cc2c([nH]1)CCC2 (single isomer, unassigned) [Compound 47, N-(1-(6,7-Difluoro-1-oxo-1,2-dihydroisoquinolin-4-yl)ethyl)-N-methyl-1,4,5,6-tetrahydro cyclopenta[b]pyrrole-2-carboxamide] | ≥ 25000
23 | CC(c1c[nH]c(=O)c2cc(F)c(F)cc12)N(C)C(=O)c1cc2c([nH]1)CCC2 (single isomer, unassigned) [Compound 48, N-(1-(6,7-Difluoro-1-oxo-1,2-dihydroisoquinolin-4-yl)ethyl)-N-methyl-1,4,5,6-tetrahydro cyclopenta[b]pyrrole-2-carboxamide] | 150
24 | CC(c1c[nH]c(=O)c2cc(F)c(F)cc12)N(C)C(=O)c1nc2cc(F)c(F)cc2[nH]1 (single isomer, unassigned) [Compound 49, N-(1-(6,7-Difluoro-1-oxo-1,2-dihydroisoquinolin-4-yl)ethyl)-5,6-difluoro-N-methyl-1H-benzo[d]imidazole-2-carboxamide] | 3100
25 | CC(c1c[nH]c(=O)c2cc(F)c(F)cc12)N(C)C(=O)c1nc2cc(F)c(F)cc2[nH]1 (single isomer, unassigned) [Compound 50, N-(1-(6,7-Difluoro-1-oxo-1,2-dihydroisoquinolin-4-yl)ethyl)-5,6-difluoro-N-methyl-1H-benzo[d]imidazole-2-carboxamide] | 290
26 | CC(c1c[nH]c(=O)c2cc(F)c(F)cc12)N(C)C(=O)c1c[nH]c2ccccc12 (single isomer, unassigned) [Compound 53, N-(1-(6,7-Difluoro-1-oxo-1,2-dihydroisoquinolin-4-yl)ethyl)-N-methyl-1H-indole-3-carboxamide] | ≥ 25000
27 | CC(c1c[nH]c(=O)c2cc(F)c(F)cc12)N(C)C(=O)c1c[nH]c2ccccc12 (single isomer, unassigned) [Compound 54, N-(1-(6,7-Difluoro-1-oxo-1,2-dihydroisoquinolin-4-yl)ethyl)-N-methyl-1H-indole-3-carboxamide] | 5100
28 | CC(c1c[nH]c(=O)c2cc(F)c(F)cc12)N(C)C(=O)c1n[nH]c2ccccc12 (single isomer, unassigned) [Compound 56, N-(1-(6,7-Difluoro-1-oxo-1,2-dihydroisoquinolin-4-yl)ethyl)-N-methyl-2H-indazole-3-carboxamide] | ≥ 25000

Same assay, conditions: Hepatitis B virus, HepDE19, 168 h, HepDE19 cells, 7 day incubation, rcDNA measured by Quantigene 2.0 bDNA assay, top concentration 25 μM; read-out: DE-19bDNA EC50

Row | SMILES | EC50 [nM]
29 | CC(c1c[nH]c(=O)c2cc(F)c(F)cc12)N(C)C(=O)c1n[nH]c2ccccc12 (single isomer, unassigned) [Compound 55, N-(1-(6,7-Difluoro-1-oxo-1,2-dihydroisoquinolin-4-yl)ethyl)-N-methyl-2H-indazole-3-carboxamide] | 16000

Same assay, conditions: read-out: DE-19bDNA EC50; HepDE19 cells, 7 day incubation, rcDNA measured by Quantigene 2.0 bDNA assay, top concentration 25 μM

Row | SMILES | EC50 [nM]
30 | CC(c1c[nH]c(=O)c2cc(F)c(F)cc12)N(C)C(=O)c1cc2cccnc2[nH]1 (single isomer, unassigned) [Compound 51, N-(1-(6,7-Difluoro-1-oxo-1,2-dihydroisoquinolin-4-yl)ethyl)-N-methyl-1H-pyrrolo[2,3-b]pyridine-2-carboxamide] | 790
31 | CC(c1c[nH]c(=O)c2cc(F)c(F)cc12)N(C)C(=O)c1cc2cccnc2[nH]1 (single isomer, unassigned) [Compound 52, N-(1-(6,7-Difluoro-1-oxo-1,2-dihydroisoquinolin-4-yl)ethyl)-N-methyl-1H-pyrrolo[2,3-b]pyridine-2-carboxamide] | ≥ 25000
